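48-hour exposure; five concentrations; linearly interpolated endpoints. Abbreviation: GI50, concentration required for 50% inhibition of growth. The concentration for full growth arrest is given as TGI.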
The molecules below were run on 786-0 renal (assay: NCI-60 cell line screen, 48 h).

Compound | TGI [µM] | GI50 [µM]
O=C(O)C1C(Br)(c2ccccc2)C1(Br)c1ccccc1 (stereo unspecified) | > 100 | 
C#Cc1c(I)n(C2OC(CO[Si](C)(C)C(C)(C)C)C3OC(C)(C)OC32)c(=O)[nH]c1=O (stereo unspecified) | 29.4 | 14.7
CCSc1nc(SCC)c2cn[nH]c2n1 | > 100 | > 100
ClCC[N+]12CC[N+](CCCl)(CC1)C2 | > 100 | 
COc1ccc(CCN2COc3c([C@@H](C)CCC=C(C)C)ccc(C)c3C2)cc1OC | 4.16 | 1.98
COc1cc(C(=O)c2cc(C)c3[nH]c4ccc(C)cc4c3c2C)cc(OC)c1OC | 3.17 | < 0.01
C=C1C(=O)OC2/C=C(\COC(C)=O)CCC(OC(C)=O)C3=CC(OC3=O)C12 (stereo unspecified) | 20.9 | 
Cc1ccc2[nH]c(O)c(N=Nc3ccc(S(N)(=O)=O)cc3)c2c1 | > 25 | 23.5
C/C(N=NC(=S)N(C)C)=C1\C=CC=CN1O | > 52.2 | 
CCCSc1nc(COC(=O)NC)c(COC(=O)NC)n1C | > 100 | 
O=C1CCC(O)=C1N=Nc1ccccc1 | > 100 | 
C=C1CCC(CC[C@@H]2CC[C@]3(OC2)O[C@@]2(O)CC[C@]3(C)OC2(C)C)C(C)(C)[C@H]1C/C=C1/C(=O)OC[C@@H]1O (stereo partly specified) | 7.78 | 
C[C@]12CC[C@@H]3c4cc(OCC(F)(F)F)c(O)cc4/C(=N/O)C[C@H]3[C@@H]1CC[C@@H]2O |  | 0.029
Cn1c(=O)c(Cc2ccccc2F)cc2cnc(NC3CCOCC3)nc21 | > 25 | > 25
COc1cc(/C=C/c2ccc(OC)c(OC)c2)cc(OC)c1 | 44.7 | 
CC1(C)[C@@H](OC(N)=O)[C@H]2O[C@H]2[C@]2(C=O)[C@H]3CC[C@]4(C)[C@@H](c5ccc(=O)oc5)[C@@H](Cl)C[C@]4(O)C3=CC[C@@H]12 | 0.0105 | 0.00489
CCCCON(OC(=O)c1ccc2ccc3cccc4ccc1c2c34)C(C)=O | 38.2 | 19.6
Clc1ccc(C=Nc2ccc3c(c2)Cc2ccccc2-3)c(Cl)c1 | > 100 | 
CN(C)CCN1C(=O)c2ccc3c4c(ccc(c24)C1=O)C(=O)N(CCN=C=S)C3=O | 0.416 | 0.0436
COc1ccc2nc(NC(=O)C(=O)C(C#N)c3ccc([N+](=O)[O-])cc3)sc2c1 (stereo unspecified) | > 100 | 
COc1ccc(/C=C/c2cc(OC)cc(=O)o2)cc1 | > 100 | 
O=C1CSC(c2ccc(Cl)cc2Cl)N1c1ccc(F)cc1 (stereo unspecified) | 31.7 | 17.8
O=C(O)[C@H](NS(=O)(=O)c1ccc([N+](=O)[O-])cc1)c1ccccc1 | > 100 | 
S=C1OC2CCCC[C@H]2O1 (stereo partly specified) | > 100 | 

Each molecule was assayed on HCT-116 colon (assay: NCI-60 cell line screen, 48 h).

Compound | TGI [µM] | GI50 [µM]
C=CCc1ccc(Oc2cc(CC=C)c3c(c2O)O[C@@H](CO)[C@H]3c2ccc(O)c(-c3cc(CC=C)ccc3O)c2)cc1 | > 100 | 
O=S(=O)(Nc1cc(Sc2cccc3cccnc23)c(O)c2ccccc12)c1ccccc1 | 2.8 | 0.555
O=C(NCO)NCOCn1c(=O)n(CO)c(=O)n(CO)c1=O | 96.2 | 
CN(C)C(=O)[C@H](O)[C@H](Cc1ccccc1)NC(=O)c1cc2cc(Cl)ccc2[nH]1 | > 87 | 25
CC(C)(C[C@H]1CN(S(=O)(=O)c2cccc(C(F)(F)F)c2)c2cc(-c3cc(F)cc(OC(F)F)c3)ccc2O1)C(=O)O | 15.8 | 4.01
Cc1ccc(-c2nc3ccc(Cl)cc3c(=O)n2N2C(=O)CSC2c2ccccc2Cl)cc1 (stereo unspecified) | > 100 | 5.51
O=C(O)C1C(Br)(c2ccccc2)C1(Br)c1ccccc1 (stereo unspecified) | > 100 | 
C#Cc1c(I)n(C2OC(CO[Si](C)(C)C(C)(C)C)C3OC(C)(C)OC32)c(=O)[nH]c1=O (stereo unspecified) | 10.1 | 2.78
CCSc1nc(SCC)c2cn[nH]c2n1 | > 100 | 36.6
ClCC[N+]12CC[N+](CCCl)(CC1)C2 | > 100 | 
COc1ccc(CCN2COc3c([C@@H](C)CCC=C(C)C)ccc(C)c3C2)cc1OC | 4.94 | 2.17
COc1cc(C(=O)c2cc(C)c3[nH]c4ccc(C)cc4c3c2C)cc(OC)c1OC |  | < 0.01
C=C1C(=O)OC2/C=C(\COC(C)=O)CCC(OC(C)=O)C3=CC(OC3=O)C12 (stereo unspecified) | 6.85 | 
Cc1ccc2[nH]c(O)c(N=Nc3ccc(S(N)(=O)=O)cc3)c2c1 | > 25 | 8.87

— PubChem BioAssay (NCI)
